Laboratory results taken from patent US20190133124A1, “BACILLUS AND LIPOCHITOOLIGOSACCHARIDE FOR IMPROVING PLANT GROWTH” (NOVOZYMES BIOAG A/S, priority 2016, published 2019).

What was measured:
[1] = tested on: corn seeds (Monsanto, DKC 63-33); experiment: Metro-Mix 830 system (growth chamber): corn seedling dry weight after seed treatment with Bacillus amyloliquefaciens and Myc factor; type: in vivo
Experimental: A study was performed to determine the effect of Bacillus amyloliquefaciens, LCOs, or combinations of Bacillus amyloliquefaciens and LCOs on corn growth. Corn seeds were treated with Bacillus amyloliquefaciens strain SB3281 bacteria alone, or in combination with an LCO IV (C16:0, S) Myc factor (FIG. 1B). In this study, corn seeds treated with Bacillus amyloliquefaciens alone or Myc factor alone were compared to non-treated control corn seeds. In addition, corn seeds treated with Bacillus amyloliquefaciens and Myc factor were included in the study. Seeds treated as above were tested in a system designed to test various parameters of early emergence of treated seeds. In this system, the treated seeds were planted in Metro-Mix® 830 (Sun Gro Horticulture; […], Mass., U.S.) and grown in a growth chamber (25° C., 60% relative humidity, 18/6 hour light/dark cycle). Germination trays (12 rows of 6 wells) were filled with moist Metro-Mix® 830. Treated seeds were sown into the wells (30 wells per seed treatment) and grown in the growth chamber for 8 days. The seedlings were harvested, and dry weights of roots/shoots from the seedlings were obtained. To measure the dry weight, the soil was removed from the roots, and dry weights of the roots/shoots and biomass per seedling were determined as described in Example 1. To obtain the Bacillus amyloliquefaciens bacterium for the study, strain SB3281 (ATCC PTA-7542) was grown as described in Example 1. Samples of the bacteria were taken from the culture at 24 hrs (T1). The number of bacteria in the cultures at the various time points was determined by plating serial dilutions from the cultures on SMA plates and the colonies that formed were counted and multiplied by the dilution factor. The number of spores in the cultures were determined by heating aliquots from the cultures at 80° C. in a water bath for 10 minutes to kill vegetative cells. Serial dilutions were plated as above and colony counts multiplied by the dilution factor. Corn seeds were treated by applying a total of 500 μl of treatment substances (e.g., bacteria, LCO, etc.) to 50 g of corn seeds (Monsanto, DKC 63-33). The seeds were allowed to dry at room temperature in bags for 3-4 hours before used in the Metro-Mix® experiments. Control seeds were treated with 500 μl of water. Another group of seeds was treated with 500 μl of a Bacillus amyloliquefaciens culture. A third group of seeds was treated with 500 μl of a 10^-9 M solution of Myc factor. A fourth group of seeds was treated with 250 μl of the Bacillus amyloliquefaciens culture and 250 μl of a 10^-9 M solution of Myc factor.

[2] = tested on: corn seeds (Monsanto, DKC 63-33); experiment: Moist chamber system: corn seedling dry weight after seed treatment with Bacillus amyloliquefaciens and Nod factor; type: in vivo
Experimental: A study was performed to determine the effect of seed treatment of Bacillus amyloliquefaciens, a Nod factor, or a combination of Bacillus amyloliquefaciens and a Nod factor on corn growth. Corn seeds were treated with Bacillus amyloliquefaciens strain SB3281 bacteria alone, an LCO V (C18:1) Nod factor (FIG. 1A) alone, or a combination of the bacterial strain and Nod factor. Seeds treated as above were tested in a system designed to test various parameters of early seed germination. In this system, the seeds were placed on moist germination paper, in petri dishes, in a representative mock moist chamber experiment (for each seed treatment, 3 petri dishes, each with 5 seeds per dish, were used; 10 ml of deionized water was added to the germination paper per dish). The seeds were allowed to grow in the petri dishes at room temperature for approximately 2 weeks. After that time, various parameters of the seedlings were measured. The lengths of roots/shoots were measured in some experiments. In some experiments, the dry weights of the roots/shoots were determined after dissecting roots from shoots, drying the roots/shoots (placed in a coin envelope) in a 70° C. oven for 2 days, and weighing the roots/shoots. The individual biomass per seedling was determined from these measurements in order to find the average biomass per treatment. To obtain the Bacillus amyloliquefaciens bacterium for the study, strain SB3281 (ATCC PTA-7542) was maintained on Standard Methods Agar (“SMA”; Smith River Biologicals; Ferrum, Va., U.S.). Single colonies were selected from SMA and used to inoculate 5 ml of LB medium. Twenty-four hour old LB cultures were used to inoculate a 250 ml flask containing 100 ml of Si medium (per liter contained 9.4 g of yeast extract, 9.4 g of corn syrup solids, 0.5 g of magnesium chloride hexahydrate, 0.2 g of manganese (II) chloride tetrahydrate, 0.2 g of calcium chloride dehydrate, and 0.27 g of sodium hydroxide, pH 7.0). The flask was incubated at 30° C. on a shaker at 165 rpm. Samples of the bacteria were taken from the culture at 7 days (T7). The number of bacteria in the cultures at the various time points was determined by plating serial dilutions from the cultures on SMA plates and the colonies that formed were counted and multiplied by the dilution factor. The number of spores in the cultures were determined by heating aliquots from the cultures at 80° C. in a water bath for 10 minutes to kill vegetative cells. Serial dilutions were plated as above and colony counts multiplied by the dilution factor. Generally, the cultures contained 10^9 bacteria or spores per ml. Corn seeds were treated by applying a total of 500 μl of treatment substances (e.g., bacteria, LCO, etc.) to 50 g of corn seeds (Monsanto, DKC 63-33). The seeds were allowed to dry at room temperature in bags for 3-4 hours before used in the moist chamber experiments. For treatment of seeds with a single substance (e.g., bacteria alone, LCO alone), 500 μl of the bacterial culture was used, or 500 μl of a LCO solution that contained 6 μl of a 10^−8 M LCO stock solution in 100 ml of buffer was used. For treatment of seeds with two substances (e.g., bacteria and an LCO), 250 μl of the bacterial culture and 250 μl of the 6×10^−13 M LCO stock solution was used. Negative control corn seeds were treated with 500 μl of water. […]

## CCCCCCCCCCCCCCCC(=O)N[C@H]1[C@H](O[C@H]2[C@H](O)[C@@H](NC(C)=O)[C@H](O[C@H]3[C@H](O)[C@@H](NC(C)=O)[C@H](O[C@H]4[C@H](O)[C@@H](NC(C)=O)C(O)O[C@@H]4COS(=O)(=O)O)O[C@@H]3CO)O[C@@H]2CO)O[C@H](CO)[C@@H](O)[C@@H]1O (stereo partly shown) [Myc factor, LCO IV (C16:0, S)]
[1]; Metro-Mix 830, growth chamber 25° C., 8 days, culture grown 1 day (T1), single: 500 μl culture or 500 μl 10^−9 M Myc factor, combination: 250 μl + 250 μl, per 50 g seeds
  Average individual seedling dry weight: 0.1921 g
[1]; difference to control 0.1985 g, Metro-Mix 830
  Decrease in seedling dry weight versus control: 0.0064 g
[1]; rounded, Metro-Mix 830
  Change in seedling dry weight over control (about %): about −3.2%
[1]; seedling dry weight, Metro-Mix 830
  Effect on corn plant growth (in words): appeared to have a negative effect on corn plant growth
[1]; vs water-treated control, Metro-Mix 830, 8 days
  Percent increase seedling dry weight over control: −3.22%

## LCO V (C18:1) [Nod factor]
[2]; approximately 2 weeks, T7 culture, single: 500 μl culture or 500 μl 6×10^−13 M LCO, combination: 250 μl + 250 μl, per 50 g seeds
  Average individual seedling dry weight: 0.2244 g
[2]; difference to control 0.2190 g
  Increase in seedling dry weight over control: 0.0054 g
[2]; rounded
  Increase in seedling dry weight over control (about %): about 2.5%
[2]; seedling dry weight
  Effect on corn plant growth (in words): increased corn plant growth
[2]; vs water-treated control
  Percent increase seedling dry weight over control: 2.47%
